Source: ChEMBL document CHEMBL4477229, “Design and Characterization of Superpotent Bivalent Ligands Targeting Oxytocin Receptor Dimers via a Channel-Like Structure” (J Med Chem, 2016)
Residue numbers refer to the chain shown, from its start. Calls of active or inactive are those of the source. No cut-off for these calls is given here. Numbered stars: 1 amine (or outer) side, 2 acyl side, 3 side chain; on linkers, the order of the positions; unused ones are H or OH. Bridge positions count the residues as written; N and C are the ends. Square brackets hold non-standard residues; d marks the D form. Peptide text beside a SMILES is read from it. I, II: the chains in the order shown. * marks the point of attachment. Sebacoyl = O=C(CCCCCCCCC(=O)[*:2])[*:1]; C14 diacid = O=C(O)CCCCCCCCCCCCC(=O)*; C12 diacid = O=C(O)CCCCCCCCCCC(=O)*; Adipoyl = O=C(CCCCC(=O)[*:2])[*:1]; Octanoyl = CCCCCCCC(=O)*; Mpa = O=C(O)CCS

Assays:
[1] = molecular target: T1, Oxytocin receptor (Homo sapiens) (UniProt P30559); experiment: (§1) Agonist activity at human oxytocin receptor expressed in HEK293 cells coexpressing Rluc8-tagged Galphaq, N-terminal GFP-tagged Ggamma2 and Gbeta1 protein incubated for 2 mins by Gq protein activation based BRET assay; type: cell-based; set-up: unit not given here
T1 sequence (whole entry): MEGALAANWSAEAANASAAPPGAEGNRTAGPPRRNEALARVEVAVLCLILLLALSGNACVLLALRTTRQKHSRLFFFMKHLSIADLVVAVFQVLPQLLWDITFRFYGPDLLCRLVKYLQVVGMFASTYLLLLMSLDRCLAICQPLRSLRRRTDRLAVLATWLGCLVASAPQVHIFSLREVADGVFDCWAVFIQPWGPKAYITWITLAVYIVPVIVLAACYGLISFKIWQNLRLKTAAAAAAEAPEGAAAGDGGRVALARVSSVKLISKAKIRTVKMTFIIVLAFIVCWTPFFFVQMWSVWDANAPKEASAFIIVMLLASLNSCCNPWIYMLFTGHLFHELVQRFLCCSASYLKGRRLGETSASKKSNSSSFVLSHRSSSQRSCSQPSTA

[2] = molecular target: T2, Oxytocin receptor (Homo sapiens, UniProt P30559); experiment: Agonist activity at human oxytocin receptor high affinity site expressed in HEK293 cells coexpressing Rluc8-tagged Galphaq, N-terminal GFP-tagged Ggamma2 and Gbeta1 protein incubated for 2 mins by Gq protein activation based BRET assay; type: cell-based
T2 sequence (P30559 whole entry): T1 sequence (whole entry)

[3] = molecular target: T2, Oxytocin receptor; experiment: Agonist activity at human oxytocin receptor low affinity site expressed in HEK293 cells coexpressing Rluc8-tagged Galphaq, N-terminal GFP-tagged Ggamma2 and Gbeta1 protein incubated for 2 mins by Gq protein activation based BRET assay; type: cell-based
[4] = tested on: T3, Oxytocin receptor (Homo sapiens), P30559 [C47A]; experiment: (§2) Agonist activity at human oxytocin receptor C47A mutant expressed in HEK293 cells coexpressing Rluc8-tagged Galphaq, N-terminal GFP-tagged Ggamma2 and Gbeta1 protein incubated for 2 mins by Gq protein activation based BRET assay; type: cell-based; set-up: unit not given here
T3 sequence (whole entry): T1 sequence (whole entry) with C47A

[5] = molecular target: T4, Oxytocin receptor (Homo sapiens, UniProt P30559, C47A); experiment: as §2; type: cell-based
T4 sequence (P30559 whole entry C47A): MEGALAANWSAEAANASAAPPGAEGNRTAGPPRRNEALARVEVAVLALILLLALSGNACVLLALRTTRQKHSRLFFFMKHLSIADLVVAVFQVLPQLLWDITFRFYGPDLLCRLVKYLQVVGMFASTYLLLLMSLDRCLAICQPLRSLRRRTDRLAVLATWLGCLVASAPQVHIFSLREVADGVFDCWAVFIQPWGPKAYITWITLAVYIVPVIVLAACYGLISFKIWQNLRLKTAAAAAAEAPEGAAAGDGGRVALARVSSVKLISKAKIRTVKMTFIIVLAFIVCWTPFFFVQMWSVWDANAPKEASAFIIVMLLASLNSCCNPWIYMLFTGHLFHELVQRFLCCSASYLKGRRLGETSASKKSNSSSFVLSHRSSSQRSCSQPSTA

[6] = tested on: T5, Oxytocin receptor (Homo sapiens), P30559 [V43A,C47A]; experiment: (§3) Agonist activity at human oxytocin receptor V43A/C47A double mutant expressed in HEK293 cells coexpressing Rluc8-tagged Galphaq, N-terminal GFP-tagged Ggamma2 and Gbeta1 protein incubated for 2 mins by Gq protein activation based BRET assay; type: cell-based; set-up: unit not given here
T5 sequence (whole entry): T1 sequence (whole entry) with V43A, C47A

[7] = molecular target: T6, Oxytocin receptor (Homo sapiens, UniProt P30559, C47A/V43A); experiment: as §3; type: cell-based
T6 sequence (P30559 whole entry V43A/C47A): as the sequence (P30559 whole entry C47A) above, with V43A counted along it

[8] = molecular target: T1, Oxytocin receptor (Homo sapiens); experiment: (§4) Agonist activity at human oxytocin receptor expressed in HEK293 cells coexpressing Rluc8-tagged Galphaq, N-terminal GFP-tagged Ggamma2 and Gbeta1 protein incubated for 2 mins in presence of TMH1-TAT peptide by Gq protein activation based BRET assay; type: cell-based; set-up: unit not given here
[9] = molecular target: T2, Oxytocin receptor; experiment: as §4; type: cell-based
[10] = molecular target: T1, Oxytocin receptor (Homo sapiens); experiment: (§5) Agonist activity at human oxytocin receptor expressed in HEK293 cells coexpressing Rluc8-tagged Galphaq, N-terminal GFP-tagged Ggamma2 and Gbeta1 protein incubated for 2 mins in presence of TMH5-TAT peptide by Gq protein activation based BRET assay; type: cell-based; set-up: unit not given here
[11] = molecular target: T2, Oxytocin receptor; experiment: Agonist activity at human oxytocin receptor high affinity site expressed in HEK293 cells coexpressing Rluc8-tagged Galphaq, N-terminal GFP-tagged Ggamma2 and Gbeta1 protein incubated for 2 mins in presence of TMH5-TAT peptide by Gq protein activation based BRET assay; type: cell-based
[12] = molecular target: T2, Oxytocin receptor; experiment: Agonist activity at human oxytocin receptor low affinity site expressed in HEK293 cells coexpressing Rluc8-tagged Galphaq, N-terminal GFP-tagged Ggamma2 and Gbeta1 protein incubated for 2 mins in presence of TMH5-TAT peptide by Gq protein activation based BRET assay; type: cell-based
[13] = tested on: Danio rerio; experiment: Effect on social behavior in zebra fish assessed as increase in time spent swimming parallel to nacre mutant fish over time spent shoaling close to wild type fish at 0.75 ng/kg, im; type: functional, organism-based
[14] = molecular target: T2, Oxytocin receptor; experiment: as §1; type: cell-based
[15] = molecular target: T4, Oxytocin receptor; experiment: Agonist activity at human oxytocin receptor C47A mutant high affinity site expressed in HEK293 cells coexpressing Rluc8-tagged Galphaq, N-terminal GFP-tagged Ggamma2 and Gbeta1 protein incubated for 2 mins by Gq protein activation based BRET assay; type: cell-based
[16] = molecular target: T4, Oxytocin receptor; experiment: Agonist activity at human oxytocin receptor C47A mutant low affinity site expressed in HEK293 cells coexpressing Rluc8-tagged Galphaq, N-terminal GFP-tagged Ggamma2 and Gbeta1 protein incubated for 2 mins by Gq protein activation based BRET assay; type: cell-based
[17] = molecular target: T6, Oxytocin receptor; experiment: Agonist activity at human oxytocin receptor V43A/C47A double mutant high affinity site expressed in HEK293 cells coexpressing Rluc8-tagged Galphaq, N-terminal GFP-tagged Ggamma2 and Gbeta1 protein incubated for 2 mins by Gq protein activation based BRET assay; type: cell-based
[18] = molecular target: T6, Oxytocin receptor; experiment: Agonist activity at human oxytocin receptor V43A/C47A double mutant low affinity site expressed in HEK293 cells coexpressing Rluc8-tagged Galphaq, N-terminal GFP-tagged Ggamma2 and Gbeta1 protein incubated for 2 mins by Gq protein activation based BRET assay; type: cell-based
[19] = molecular target: T2, Oxytocin receptor; experiment: as §5; type: cell-based
[20] = molecular target: T1, Oxytocin receptor (Homo sapiens); experiment: Displacement of [125I]-OVTA from human oxytocin receptor expressed in COS7 cell membrane; type: cell membranes
[21] = molecular target: T1, Oxytocin receptor (Homo sapiens); experiment: Ratio of EC50 for human oxytocin receptor high affinity site expressed in HEK293 cells coexpressing Rluc8-tagged Galphaq, N-terminal GFP-tagged Ggamma2 and Gbeta1 protein to Ki for human oxytocin receptor high affinity site expressed in COS7 cell membrane; type: cell-based
[22] = molecular target: T1, Oxytocin receptor (Homo sapiens); experiment: Ratio of EC50 for human oxytocin receptor low affinity site expressed in HEK293 cells coexpressing Rluc8-tagged Galphaq, N-terminal GFP-tagged Ggamma2 and Gbeta1 protein to Ki for human oxytocin receptor low affinity site expressed in COS7 cell membrane; type: cell-based
[23] = tested on: Mus musculus; experiment: Effect on social behavior in OXTR+/- DBA/2J mouse assessed as increase in time spent exploring stranger mouse over time spent exploring empty cage at 0.5 ng/mouse, icv administered as single dose measured for 10 mins by three chamber method; type: functional, organism-based

| Structure (SMILES) | Emax [1] | Emax [4] | EC50 [5] [nM] | Emax [6] | EC50 [7] [nM] | Emax [8] | EC50 [9] [nM] | Emax [10] | EC50 [14] [nM] | EC50 [19] [nM] | other results |
| --- | --- | --- | --- | --- | --- | --- | --- | --- | --- | --- | --- |
| CC[C@H](C)[C@@H]1NC(=O)[C@H](Cc2ccc(O)cc2)NC(=O)CCSSC[C@@H](C(=O)N2CCC[C@H]2C(=O)N[C@@H](CCCCNC(=O)CCCCCCCCC(=O)NCCCC[C@H](NC(=O)[C@@H]2CCCN2C(=O)[C@@H]2CSSCCC(=O)N[C@@H](Cc3ccc(O)cc3)C(=O)N[C@@H]([C@@H](C)CC)C(=O)N[C@@H](CCC(N)=O)C(=O)N[C@@H](CC(N)=O)C(=O)N2)C(=O)NCC(N)=O)C(=O)NCC(N)=O)NC(=O)[C@H](CC(N)=O)NC(=O)[C@H](CCC(N)=O)NC1=O (I: [Mpa]YIQNCPKG-NH2 / II: [Mpa]YIQNCPKG-NH2; disulfide I:1-I:6, II:1-II:6; linker I:8-II:8 via Sebacoyl) | -0.1 | -0.14 | 21.7 | -0.14 | 40.5 | -0.15 | 17.3 | -0.17 | – | – | EC50 [2]: 0.0028 nM; EC50 [3]: 13 nM; EC50 [11]: 0.00257 nM; EC50 [12]: 11 nM |
| CC[C@H](C)[C@@H]1NC(=O)[C@H](Cc2ccc(O)cc2)NC(=O)[C@@H](N)CSSC[C@@H](C(=O)N2CCC[C@H]2C(=O)N[C@H](C(=O)NCC(N)=O)[C@@H](C)CC)NC(=O)[C@H](CC(N)=O)NC(=O)[C@H](CO)NC1=O (H-CYISNCPIG-NH2; disulfide 1-6) | – | – | – | – | – | – | – | – | – | – | Activity [13]: Active |
| CC[C@H](C)[C@@H]1NC(=O)[C@H](Cc2ccc(O)cc2)NC(=O)CCSSC[C@@H](C(=O)N2CCC[C@H]2C(=O)N[C@@H](CCCCNC(=O)CCCCCCCCCCCCC(=O)NCCCC[C@H](NC(=O)[C@@H]2CCCN2C(=O)[C@@H]2CSSCCC(=O)N[C@@H](Cc3ccc(O)cc3)C(=O)N[C@@H]([C@@H](C)CC)C(=O)N[C@@H](CCC(N)=O)C(=O)N[C@@H](CC(N)=O)C(=O)N2)C(=O)NCC(N)=O)C(=O)NCC(N)=O)NC(=O)[C@H](CC(N)=O)NC(=O)[C@H](CCC(N)=O)NC1=O (I: [Mpa]YIQNCPKG-NH2 / II: [Mpa]YIQNCPKG-NH2; disulfide I:1-I:6, II:1-II:6; linker I:8-II:8 via C14 diacid) | -0.1 | -0.11 | – | -0.11 | – | -0.144 | 15.4 | -0.145 | 29.4 | 59 | EC50 [15]: 0.0014 nM; EC50 [16]: 301 nM; EC50 [17]: 0.011 nM; EC50 [18]: 867 nM |
| CCCCCCCC(=O)NCCCC[C@H](NC(=O)[C@@H]1CCCN1C(=O)[C@@H]1CSSCCC(=O)N[C@@H](Cc2ccc(O)cc2)C(=O)N[C@@H]([C@@H](C)CC)C(=O)N[C@@H](CCC(N)=O)C(=O)N[C@@H](CC(N)=O)C(=O)N1)C(=O)NCC(N)=O ([Mpa]YIQNCPK(Octanoyl)G-NH2; disulfide 1-6) | -0.11 | – | – | – | – | – | – | – | 4.1 | – | – |
| CC[C@H](C)[C@@H]1NC(=O)[C@H](Cc2ccc(O)cc2)NC(=O)CCSSC[C@@H](C(=O)N2CCC[C@H]2C(=O)N[C@@H](CCCCNC(=O)CCCCCCCCCCC(=O)NCCCC[C@H](NC(=O)[C@@H]2CCCN2C(=O)[C@@H]2CSSCCC(=O)N[C@@H](Cc3ccc(O)cc3)C(=O)N[C@@H]([C@@H](C)CC)C(=O)N[C@@H](CCC(N)=O)C(=O)N[C@@H](CC(N)=O)C(=O)N2)C(=O)NCC(N)=O)C(=O)NCC(N)=O)NC(=O)[C@H](CC(N)=O)NC(=O)[C@H](CCC(N)=O)NC1=O (I: [Mpa]YIQNCPKG-NH2 / II: [Mpa]YIQNCPKG-NH2; disulfide I:1-I:6, II:1-II:6; linker I:8-II:8 via C12 diacid) | -0.11 | -0.13 | – | -0.08 | 182 | -0.16 | 37.9 | -0.15 | 20.1 | 14 | EC50 [15]: 0.0012 nM; EC50 [16]: 135 nM |
| CC[C@H](C)[C@@H]1NC(=O)[C@H](Cc2ccc(O)cc2)NC(=O)CCSSC[C@@H](C(=O)N2CCC[C@H]2C(=O)N[C@@H](CCCCN)C(=O)NCC(N)=O)NC(=O)[C@H](CC(N)=O)NC(=O)[C@H](CCC(N)=O)NC1=O ([Mpa]YIQNCPKG-NH2; disulfide 1-6) | -0.11 to -0.1 | -0.15 | 2.8 | -0.08 | 33.4 | -0.15 | 0.92 | -0.14 | 4 | 0.75 | EC50 [2]: 0.265 nM; EC50 [3]: 74.8 nM; KiH [20]: 21 pM; KiL [20]: 3.35 nM; Ratio [21]: 10; Ratio [22]: 10 |
| CC[C@H](C)[C@@H]1NC(=O)[C@H](Cc2ccc(O)cc2)NC(=O)[C@@H](N)CSSC[C@@H](C(=O)N2CCC[C@H]2C(=O)N[C@@H](CC(C)C)C(=O)NCC(N)=O)NC(=O)[C@H](CC(N)=O)NC(=O)[C@H](CCC(N)=O)NC1=O | – | – | – | – | – | – | – | – | – | – | Activity [23]: Active |
| CC[C@H](C)[C@@H]1NC(=O)[C@H](Cc2ccc(O)cc2)NC(=O)CCSSC[C@@H](C(=O)N2CCC[C@H]2C(=O)N[C@@H](CCCCNC(=O)CCCCC(=O)NCCCC[C@H](NC(=O)[C@@H]2CCCN2C(=O)[C@@H]2CSSCCC(=O)N[C@@H](Cc3ccc(O)cc3)C(=O)N[C@@H]([C@@H](C)CC)C(=O)N[C@@H](CCC(N)=O)C(=O)N[C@@H](CC(N)=O)C(=O)N2)C(=O)NCC(N)=O)C(=O)NCC(N)=O)NC(=O)[C@H](CC(N)=O)NC(=O)[C@H](CCC(N)=O)NC1=O (I: [Mpa]YIQNCPKG-NH2 / II: [Mpa]YIQNCPKG-NH2; disulfide I:1-I:6, II:1-II:6; linker I:8-II:8 via Adipoyl) | -0.13 | -0.13 | 21.9 | -0.14 | 25.6 | – | – | – | 11.8 | – | – |
